Reference: the Bradley open melting point set (2014)

In the case of `Cc1noc(NS(=O)(=O)c2ccc(N)cc2)c1C` [Sulfisoxazole], the melting point is reported as 194 °C.
`O=S(=O)(O)Cl` [Sulfurochloridic acid] showed a melting point of -80 °C.
For `O=S(=O)(O)F` [Sulfurofluoridic acid], the melting point was -87.3 °C.
In the case of `CC[C@@H]1OC(=O)[C@H](C)C(=O)[C@H](C)[C@@H](O[C@@H]2O[C@H](C)C[C@H](N(C)C)[C@H]2O)[C@](C)(OC)C[C@@H](C)C(=O)[C@H](C)[C@H]2N(CCCCn3cnc(-c4cccnc4)c3)C(=O)O[C@@]12C` [Telithromycin], the melting point is reported as 182 °C.
In the case of `CC(C)(C)NCC(O)c1cc(O)cc(O)c1` (stereo not drawn) [Terbutaline], the melting point is reported as 120 °C.
`N#Cc1ccc(C#N)cc1` [Terephthalonitrile] gave a melting point of 226 °C.
In the case of `C[C@]12CC[C@H]3[C@@H](CCC4=CC(=O)CC[C@@]43C)[C@@H]1CC[C@@H]2O` [Testosterone] [listing 1 of 2 here], the melting point is reported as 154 °C.
Work on `C[C@]12CC[C@H]3[C@@H](CCC4=CC(=O)CC[C@@]43C)[C@@H]1CC[C@@H]2O` [Testosterone] [listing 2 of 2 here] yielded a melting point of 155 °C.
For `CCCCCCCCCCCCCCc1ccccc1` [Tetradecylbenzene], the melting point was 9 °C.
`O=C1CCC(N2C(=O)c3ccccc3C2=O)C(=O)N1` (stereo not drawn) [Thalidomide] gave a melting point of 275 °C.
Compound `Cn1c(=O)c2nc[nH]c2n(C)c1=O` [Theophylline] has a melting point of 274 °C.
With `O=S(F)F` [Thionyl difluoride] the melting point was -110 °C.
With `c1ccsc1` [Thiophene] the melting point was -38 °C.
`NC(N)=S` [Thiourea] gave a melting point of 176 °C.
Work on `Cc1cn([C@H]2C[C@H](O)[C@@H](CO)O2)c(=O)[nH]c1=O` [Thymidine] yielded a melting point of 188 °C.
Compound `CCS(=O)(=O)CCn1c([N+](=O)[O-])cnc1C` [Tinidazole] has a melting point of 128 °C.
With `CN(C)CCOc1ccc(/C(=C(/CCCl)c2ccccc2)c2ccccc2)cc1` [Toremifene] the melting point was 109 °C.
Compound `CC(C=CC=C(C)/C=C/C1=C(C)CCCC1(C)C)=CC(=O)O` [Tretinoin] has a melting point of 181 °C.
Compound `Nc1nc(N)c2nc(-c3ccccc3)c(N)nc2n1` [Triamterene] has a melting point of 306 °C.
For `Cc1nnc2n1-c1ccc(Cl)cc1C(c1ccccc1Cl)=NC2` [Triazolam] [listing 1 of 2 here], the melting point was 234 °C.
In the case of `Cc1nnc2n1-c1ccc(Cl)cc1C(c1ccccc1Cl)=NC2` [Triazolam] [listing 2 of 2 here], the melting point is reported as 234 °C.
`[2H]C(Cl)(Cl)Cl` [Trichloro(~2~H)methane] showed a melting point of -64 °C.
`O=C(O)C(Cl)(Cl)Cl` [Trichloroacetic acid] gave a melting point of 57 °C.
`CCCCCCCCCCCC(C)=O` [Tridecan-2-one] gave a melting point of 24 °C.
For `CCCCCCCCCCCCC` [Tridecane], the melting point was -5 °C.
Work on `O=C(O)C(F)(F)F` [Trifluoroacetic acid] yielded a melting point of -15 °C.
With `O=C(OC(=O)C(F)(F)F)C(F)(F)F` [Trifluoroacetic anhydride] the melting point was -63 °C.
Compound `COB(OC)OC` [Trimethyl borate] has a melting point of -34 °C.
`c1ccc2c(c1)c1ccccc1c1ccccc21` [Triphenylene] showed a melting point of 199 °C.
With `CCCCCCCCCCCCCCCCCCCCCCCCCCCCCCCCC` [Tritriacontane] the melting point was 72 °C.
Work on `CC(C)(C)NC(=O)C(c1ccccc1)N(Cc1ccco1)C(=O)CNC(=O)OC(C)(C)C` (stereo not drawn) [Ugi product 206B(UC)] yielded a melting point of 203 °C.
In the case of `CCCCCCCCCCC` [Undecane], the melting point is reported as -26 °C.
`CCCCC=O` [Valeraldehyde] showed a melting point of -91.5 °C.
`CCCCC(=O)OCC(=O)[C@]1(O)Cc2c(O)c3c(c(O)c2[C@@H](OC2CC(NC(=O)C(F)(F)F)C(O)C(C)O2)C1)C(=O)c1c(OC)cccc1C3=O` (stereo partly drawn) [Valrubicin] showed a melting point of 116 °C.
For `COc1cc(C(=O)NS(=O)(=O)c2ccccc2C)ccc1Cc1cn(C)c2ccc(NC(=O)OC3CCCC3)cc12` [Zafirlukast], the melting point was 139 °C.
Compound `Cc1cc(CC(=O)O)n(C)c1C(=O)c1ccc(Cl)cc1` [Zomepirac] has a melting point of 178 °C.
Compound `CSC(SC)=C(C#N)C#N` [[Bis(Methylthio)Methylene]Malononitrile] has a melting point of 61 °C.
For `CC1=CCC2CC1C2(C)C` (stereo not drawn) [a-pinene], the melting point was -62 °C.
Work on `O=C(O)COC(=O)Cc1ccccc1Nc1c(Cl)cccc1Cl` [aceclofenac] yielded a melting point of 149 °C.
Compound `CC(=O)NC(CCC(N)=O)C(=O)O` (stereo not drawn) [aceglutamide] has a melting point of 197 °C.
`COc1ccc2c(c1)c(CC(=O)OCC(=O)O)c(C)n2C(=O)c1ccc(Cl)cc1` [acemetacin] showed a melting point of 150 °C.
For `CC(=O)Nc1ccc(O)cc1` [acetaminophen], the melting point was 170 °C.
Compound `CC(=O)Nc1ccccc1` [acetanilide] has a melting point of 114 °C.
With `CC(=O)O` [acetic acid] the melting point was 17 °C.
For `CC(=O)O` [acetic_acid], the melting point was 17 °C.
`CC(=O)Cl` [acetyl_chloride] gave a melting point of -112 °C.
In the case of `COC(CC(C)=O)OC` [acetylacetaldehyde dimethyl acetal], the melting point is reported as -83 °C.
For `c1ccc2nc3ccccc3cc2c1` [acridine], the melting point was 109 °C.
`Nc1nc2c(ncn2COCCO)c(=O)[nH]1` [acyclovir] showed a melting point of 265 °C.
For `O=C2/N=C(\Nc1n(cnc12)COCCO)N` [acyclovir], the melting point was 257 °C.
For `NC(=O)C12CC3CC(CC(C3)C1)C2` [adamantane-1-carboxamide], the melting point was 187 °C.
Work on `O=C(O)CCCCC(=O)O` [adipic acid] yielded a melting point of 153 °C.
For `CC(N)C(=O)O` (stereo not drawn) [alanine], the melting point was 292 °C.
